Test system: S. meliloti
Assay: ICP-MS iron content of cells
Type: cell-based, Sinorhizobium meliloti
Conditions: 2 μM
Protocol: ICP-MS: 200 μL of protein sample was mixed with 2 ml of 2% HNO3 and ICP-MS was performed as described previously^84. For bacterial samples, 1 ml of sample was spun down and the pellet was resuspended in 40 μL of 100% HNO3 and heated at 98° C. for 1 hour. The supernatant of the solution was mixed with metal free water to make up to 2 mL and ICP-MS analysis was performed as described previously^84. Same number of cells were spun down for protein analysis through […] and data were normalized to the amount of protein in each sample. For ICP-MS analysis of nodules same procedure was followed, except nodules were first crushed in PBS, portion of sample kept aside for protein quantification and then remaining was treated with HNO3. Agilent ICP-MS instrumentation with MassHunter 4.4 was used to collect data.

For RNGCIVDPRCPYQQCRRPLYCRRR [NCR247], the “total iron content of cells” value was “elevated total iron content of the cells” and the “total iron content of cells” value (listed as L-NCR247) was “Increase in Fe content”.

— patent publication US12065468B2, “Heme-binding small peptide” (priority 2021, dated 2024)
